Reference: US20210255193A1, “LYSINE REACTIVE PROBES AND USES THEREOF” (The Scripps Research Institute, priority 2017, published 2021)
Blank lines part the entries; values can stand above or below the compound they belong to.

Experiments:
Experiment in all cases: competitive isoTOP-ABPP
Type in all cases: binding
EEF2 Elongation factor 2 = target: T1, EEF2 Elongation factor 2 (Homo sapiens, UniProt P13639); conditions: for R value (DMSO/fragment) for probe 1 labeling / isoTOP-ABPP ratio (R) at liganded lysine P13639_K235 / isoTOP-ABPP ratio (R) at liganded lysine P13639_K318 / isoTOP-ABPP reactivity ratio at lysine P13639_K235 / isoTOP-ABPP reactivity ratio at lysine P13639_K318: 50 uM, in vitro; for R value (DMSO/fragment) for probe 1 labeling / isoTOP-ABPP reactivity ratio at lysine P13639_K235 / isoTOP-ABPP reactivity ratio at lysine P13639_K318: 231 sol; for isoTOP-ABPP ratio (R) at liganded lysine P13639_K235 / isoTOP-ABPP ratio (R) at liganded lysine P13639_K318: sol, 231
T1 construct: isoTOP-ABPP experiments performed in cell lysates (in vitro); endogenous in cells; host or cells: soluble proteome of human cancer cell lines (MDA-MB-231; Ramos and Jurkat also prepared)
In short: (§1)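 Competition format: fragment (50 μM activated ester, 100 μM guanidinylating agent) versus vehicle in lysate, then lysine probe STP-alkyne at 0.1 mM for 1 h. Quantitation by light/heavy TEV-tag MS1 peak areas, reported as R.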

[1] = target: T2, KPNA2 Importin subunit alpha-2 (Homo sapiens, UniProt P52292); conditions: for R value (DMSO/fragment) for probe 1 labeling: P52292_K459; for R value (DMSO/fragment) for probe 1 labeling / isoTOP-ABPP ratio (R) at liganded lysine P52292_K459 / isoTOP-ABPP reactivity ratio at lysine P52292_K459: 50 uM, in vitro; for R value (DMSO/fragment) for probe 1 labeling / isoTOP-ABPP reactivity ratio at lysine P52292_K459: 231 sol; for isoTOP-ABPP ratio (R) at liganded lysine P52292_K459: sol, 231
T2 construct: isoTOP-ABPP experiments performed in cell lysates (in vitro); endogenous in cells; host or cells: soluble proteome of human cancer cell lines (MDA-MB-231, Ramos, Jurkat)
In short: as §1

[2] = target: T3, MTOR Serine/threonine-protein kinase mTOR (Homo sapiens, UniProt P42345); conditions: for R value (DMSO/fragment) for probe 1 labeling: P42345_K2066; for R value (DMSO/fragment) for probe 1 labeling / isoTOP-ABPP ratio (R) at liganded lysine P42345_K2066 / isoTOP-ABPP reactivity ratio at lysine P42345_K2066: 50 uM, in vitro; for R value (DMSO/fragment) for probe 1 labeling / isoTOP-ABPP reactivity ratio at lysine P42345_K2066: 231 sol; for isoTOP-ABPP ratio (R) at liganded lysine P42345_K2066: sol, 231
T3 construct: isoTOP-ABPP experiments performed in cell lysates (in vitro); endogenous in cells; host or cells: soluble proteome of human cancer cell lines (MDA-MB-231; Ramos and Jurkat also prepared)
In short: as §1

[3] = target: T4, PFKL 6-phosphofructokinase, liver type (Homo sapiens, UniProt P17858); conditions: for isoTOP-ABPP ratio (R) at liganded lysine P17858_K677 / isoTOP-ABPP ratio (R) at liganded lysine P17858_K715: sol, 231
T4 construct: isoTOP-ABPP experiments performed in cell lysates (in vitro); endogenous in cells; host or cells: soluble proteome of human cancer cell lines (MDA-MB-231; Ramos and Jurkat also prepared)
T4 sequence (P17858 1-780): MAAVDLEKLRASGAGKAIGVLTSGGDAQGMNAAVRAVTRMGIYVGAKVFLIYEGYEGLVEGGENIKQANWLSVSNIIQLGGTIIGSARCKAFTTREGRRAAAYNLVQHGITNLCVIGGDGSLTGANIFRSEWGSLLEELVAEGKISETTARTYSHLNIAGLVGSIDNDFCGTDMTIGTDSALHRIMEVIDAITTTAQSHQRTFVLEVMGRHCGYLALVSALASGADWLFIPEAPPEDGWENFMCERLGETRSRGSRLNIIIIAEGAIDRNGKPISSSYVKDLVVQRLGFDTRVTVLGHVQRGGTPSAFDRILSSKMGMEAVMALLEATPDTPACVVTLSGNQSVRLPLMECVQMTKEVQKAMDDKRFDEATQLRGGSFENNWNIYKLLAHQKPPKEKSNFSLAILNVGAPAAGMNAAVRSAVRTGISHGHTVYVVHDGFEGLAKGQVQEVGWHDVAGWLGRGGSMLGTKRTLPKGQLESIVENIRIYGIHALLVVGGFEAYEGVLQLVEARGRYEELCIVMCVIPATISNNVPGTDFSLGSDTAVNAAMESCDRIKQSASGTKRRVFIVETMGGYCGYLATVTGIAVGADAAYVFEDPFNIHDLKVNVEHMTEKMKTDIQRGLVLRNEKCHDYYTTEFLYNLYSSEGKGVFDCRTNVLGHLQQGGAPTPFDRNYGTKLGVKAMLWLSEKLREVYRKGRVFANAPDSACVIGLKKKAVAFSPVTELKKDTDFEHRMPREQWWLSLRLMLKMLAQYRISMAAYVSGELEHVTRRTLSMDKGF
In short: as §1

[4] = target: T5, RINT1 RAD50-interacting protein 1 (Homo sapiens, UniProt Q6NUQ1); conditions: for R value (DMSO/fragment) for probe 1 labeling: Q6NUQ1_K771; for R value (DMSO/fragment) for probe 1 labeling / isoTOP-ABPP ratio (R) at liganded lysine Q6NUQ1_K771 / isoTOP-ABPP reactivity ratio at lysine Q6NUQ1_K771: 50 uM, in vitro; for R value (DMSO/fragment) for probe 1 labeling / isoTOP-ABPP reactivity ratio at lysine Q6NUQ1_K771: 231 sol; for isoTOP-ABPP ratio (R) at liganded lysine Q6NUQ1_K771: sol, 231
T5 construct: isoTOP-ABPP experiments performed in cell lysates (in vitro); endogenous in cells; host or cells: soluble proteome of human cancer cell lines (MDA-MB-231; Ramos and Jurkat also prepared)
T5 sequence (Q6NUQ1 whole entry, the tested form may be a part): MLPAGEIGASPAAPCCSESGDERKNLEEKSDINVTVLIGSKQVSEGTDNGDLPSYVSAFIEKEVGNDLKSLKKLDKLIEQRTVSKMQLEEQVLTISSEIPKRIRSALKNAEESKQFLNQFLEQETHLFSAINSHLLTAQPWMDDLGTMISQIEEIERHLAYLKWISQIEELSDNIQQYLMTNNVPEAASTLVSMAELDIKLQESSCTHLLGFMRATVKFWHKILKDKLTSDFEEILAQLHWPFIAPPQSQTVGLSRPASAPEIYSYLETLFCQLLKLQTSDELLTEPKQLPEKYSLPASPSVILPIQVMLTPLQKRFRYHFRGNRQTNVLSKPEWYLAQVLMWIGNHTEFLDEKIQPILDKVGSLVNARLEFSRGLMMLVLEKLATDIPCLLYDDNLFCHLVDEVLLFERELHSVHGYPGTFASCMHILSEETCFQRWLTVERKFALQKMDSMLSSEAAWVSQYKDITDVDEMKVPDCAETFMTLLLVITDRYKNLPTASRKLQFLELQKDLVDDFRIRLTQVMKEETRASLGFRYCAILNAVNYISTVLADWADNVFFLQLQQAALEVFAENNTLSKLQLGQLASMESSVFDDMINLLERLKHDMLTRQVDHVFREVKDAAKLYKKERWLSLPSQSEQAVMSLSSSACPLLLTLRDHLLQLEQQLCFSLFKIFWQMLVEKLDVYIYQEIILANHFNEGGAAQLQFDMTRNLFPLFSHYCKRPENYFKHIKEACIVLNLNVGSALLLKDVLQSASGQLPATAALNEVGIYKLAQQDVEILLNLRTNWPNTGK
In short: as §1

[5] = target: T6, XRCC6 X-ray repair cross-complementing protein 6 (Homo sapiens, UniProt P12956); conditions: for R value (DMSO/fragment) for probe 1 labeling: P12956_K351; for R value (DMSO/fragment) for probe 1 labeling / isoTOP-ABPP ratio (R) at liganded lysine P12956_K351 / isoTOP-ABPP reactivity ratio at lysine P12956_K351: 50 uM, in vitro; for R value (DMSO/fragment) for probe 1 labeling / isoTOP-ABPP reactivity ratio at lysine P12956_K351: 231 sol; for isoTOP-ABPP ratio (R) at liganded lysine P12956_K351: sol, 231
T6 construct: isoTOP-ABPP experiments performed in cell lysates (in vitro); endogenous in cells; host or cells: soluble proteome of human cancer cell lines (MDA-MB-231; Ramos and Jurkat also prepared)
T6 sequence (P12956 2-609 limits assumed): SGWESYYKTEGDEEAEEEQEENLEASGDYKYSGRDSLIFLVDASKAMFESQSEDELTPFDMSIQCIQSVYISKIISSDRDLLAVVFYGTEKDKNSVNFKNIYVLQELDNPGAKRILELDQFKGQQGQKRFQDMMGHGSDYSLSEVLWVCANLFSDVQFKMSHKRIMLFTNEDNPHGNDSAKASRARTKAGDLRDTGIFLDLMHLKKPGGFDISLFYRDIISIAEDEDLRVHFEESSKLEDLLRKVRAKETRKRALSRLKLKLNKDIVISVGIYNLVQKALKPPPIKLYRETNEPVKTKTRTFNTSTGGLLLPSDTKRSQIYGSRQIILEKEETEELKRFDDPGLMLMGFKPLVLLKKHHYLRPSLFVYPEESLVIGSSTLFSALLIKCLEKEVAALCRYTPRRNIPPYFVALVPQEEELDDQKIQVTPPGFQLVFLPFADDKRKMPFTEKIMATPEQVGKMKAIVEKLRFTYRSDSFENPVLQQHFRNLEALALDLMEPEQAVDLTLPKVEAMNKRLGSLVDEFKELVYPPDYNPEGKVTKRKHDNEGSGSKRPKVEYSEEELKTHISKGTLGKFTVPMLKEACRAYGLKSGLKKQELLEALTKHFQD
T6 sequence (P13010 2-732 partner limits assumed): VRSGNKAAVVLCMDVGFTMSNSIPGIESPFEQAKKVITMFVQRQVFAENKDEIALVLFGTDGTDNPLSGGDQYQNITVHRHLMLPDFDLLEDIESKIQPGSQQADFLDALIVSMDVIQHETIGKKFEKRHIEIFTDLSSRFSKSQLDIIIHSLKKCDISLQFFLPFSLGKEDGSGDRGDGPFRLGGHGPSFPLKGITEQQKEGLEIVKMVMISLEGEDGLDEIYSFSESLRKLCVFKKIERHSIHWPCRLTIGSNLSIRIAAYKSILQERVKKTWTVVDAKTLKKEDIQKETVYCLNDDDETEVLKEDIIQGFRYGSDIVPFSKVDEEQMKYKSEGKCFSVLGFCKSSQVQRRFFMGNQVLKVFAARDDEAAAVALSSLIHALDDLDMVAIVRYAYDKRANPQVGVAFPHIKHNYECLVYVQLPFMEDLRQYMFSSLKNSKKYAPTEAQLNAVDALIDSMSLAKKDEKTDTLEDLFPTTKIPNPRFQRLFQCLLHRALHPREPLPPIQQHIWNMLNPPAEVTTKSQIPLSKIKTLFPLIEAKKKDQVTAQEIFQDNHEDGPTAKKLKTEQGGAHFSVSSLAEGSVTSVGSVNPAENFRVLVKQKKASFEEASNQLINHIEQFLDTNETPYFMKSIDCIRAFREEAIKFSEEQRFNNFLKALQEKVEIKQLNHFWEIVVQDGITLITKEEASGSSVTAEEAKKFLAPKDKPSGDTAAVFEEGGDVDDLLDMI
In short: as §1

[6] = P17858_K677, 50 uM, 231 sol, in vitro
[7] = P17858_K715, 50 uM, 231 sol, in vitro

R value (DMSO/fragment) for probe 1 labeling (EEF2 Elongation factor 2; P13639_K235): 2.9
R value (DMSO/fragment) for probe 1 labeling (EEF2 Elongation factor 2; P13639_K318): 5.6
R value (DMSO/fragment) for probe 1 labeling [1]: 6.2
R value (DMSO/fragment) for probe 1 labeling [2]: 2.8
R value (DMSO/fragment) for probe 1 labeling [3, 6]: 2.7
R value (DMSO/fragment) for probe 1 labeling [3, 7]: 2.9
R value (DMSO/fragment) for probe 1 labeling [4]: 1.0
R value (DMSO/fragment) for probe 1 labeling [5]: 3.6
Structure (SMILES): Cn1cc(CC(=O)Oc2c(F)c(F)c(F)c(F)c2F)c2ccccc21 [fragment 22, Pentafluorophenyl 2-(1-methyl-1H-indol-3-yl)acetate]

Structure (SMILES): O=C(Oc1ccc([N+](=O)[O-])cc1[N+](=O)[O-])c1ccc2ccccc2n1 [fragment 35, 2,4-Dinitrophenyl quinoline-2-carboxylate]
isoTOP-ABPP ratio (R) at liganded lysine P13639_K235 (EEF2 Elongation factor 2): 1.1
isoTOP-ABPP ratio (R) at liganded lysine P13639_K318 (EEF2 Elongation factor 2): 1.1
isoTOP-ABPP ratio (R) at liganded lysine P52292_K459 [1]: 1.3
isoTOP-ABPP ratio (R) at liganded lysine P42345_K2066 [2]: 1.1
isoTOP-ABPP ratio (R) at liganded lysine P17858_K677 ([3]; 50 uM, in vitro): 1.5
isoTOP-ABPP ratio (R) at liganded lysine P17858_K715 ([3]; 50 uM, in vitro): 1.3
isoTOP-ABPP ratio (R) at liganded lysine Q6NUQ1_K771 [4]: 1.7
isoTOP-ABPP ratio (R) at liganded lysine P12956_K351 [5]: 1.5

isoTOP-ABPP reactivity ratio at lysine P13639_K235 (EEF2 Elongation factor 2): 1.1
isoTOP-ABPP reactivity ratio at lysine P13639_K318 (EEF2 Elongation factor 2): 1.2
isoTOP-ABPP reactivity ratio at lysine P52292_K459 [1]: 1.2
isoTOP-ABPP reactivity ratio at lysine P42345_K2066 [2]: 1.0
isoTOP-ABPP reactivity ratio at lysine P17858_K315 ([3]; 50 uM, 231 sol, in vitro): 0.9
isoTOP-ABPP reactivity ratio at lysine P17858_K677 ([3]; 50 uM, 231 sol, in vitro): 3.3
isoTOP-ABPP reactivity ratio at lysine P17858_K715 ([3]; 50 uM, 231 sol, in vitro): 0.9
isoTOP-ABPP reactivity ratio at lysine Q6NUQ1_K771 [4]: 1.0
isoTOP-ABPP reactivity ratio at lysine P12956_K351 [5]: 1.3
Structure (SMILES): O=C(Oc1c(F)c(F)c(F)c(F)c1F)C1CCN(C(=O)OCc2ccccc2)CC1 [fragment 24, 1-Benzyl 4-(pentafluorophenyl) piperidine-1,4-dicarboxylate]

R value (DMSO/fragment) for probe 1 labeling (EEF2 Elongation factor 2; P13639_K235): 1.1
R value (DMSO/fragment) for probe 1 labeling (EEF2 Elongation factor 2; P13639_K318): 1.1
R value (DMSO/fragment) for probe 1 labeling [1]: 5.5
R value (DMSO/fragment) for probe 1 labeling [2]: 1.0
R value (DMSO/fragment) for probe 1 labeling [3, 6]: 18.8
R value (DMSO/fragment) for probe 1 labeling [3, 7]: 1.3
R value (DMSO/fragment) for probe 1 labeling [4]: 1.0
R value (DMSO/fragment) for probe 1 labeling [5]: 2.3
Structure (SMILES): O=C(Oc1c(F)c(F)c(F)c(F)c1F)C(c1ccccc1)c1ccccc1 [fragment 20, Pentafluorophenyl 2,2-diphenylacetate]

Structure (SMILES): O=C(Oc1ccc([N+](=O)[O-])cc1[N+](=O)[O-])c1cc(C(F)(F)F)cc(C(F)(F)F)c1 [fragment 31, 2,4-Dinitrophenyl 3,5-bis(trifluoromethyl)benzoate]
isoTOP-ABPP reactivity ratio at lysine P13639_K235 (EEF2 Elongation factor 2): 1.1
isoTOP-ABPP reactivity ratio at lysine P13639_K318 (EEF2 Elongation factor 2): 1.2
isoTOP-ABPP reactivity ratio at lysine P52292_K459 [1]: 1.3
isoTOP-ABPP reactivity ratio at lysine P42345_K2066 [2]: 1.1
isoTOP-ABPP reactivity ratio at lysine P17858_K677 ([3]; 50 uM, 231 sol, in vitro): 2.5
isoTOP-ABPP reactivity ratio at lysine P17858_K715 ([3]; 50 uM, 231 sol, in vitro): 2.3
isoTOP-ABPP reactivity ratio at lysine Q6NUQ1_K771 [4]: 20.0
isoTOP-ABPP reactivity ratio at lysine P12956_K351 [5]: 2.6

isoTOP-ABPP ratio, lysine P13639_K235 (EEF2 Elongation factor 2; 100 uM_231_sol_in vitro): 7.5
isoTOP-ABPP ratio, lysine P13639_K318 (EEF2 Elongation factor 2; 100 uM_231_sol_in vitro): 1.8
isoTOP-ABPP ratio, lysine P52292_K459 ([1]; 100 uM_231_sol_in vitro): 1.6
isoTOP-ABPP ratio, lysine P42345_K2066 ([2]; 100 uM_231_sol_in vitro): 1.4
isoTOP-ABPP ratio, lysine P17858_K677 ([3]; 100 uM_231_sol_in vitro, possible other lysine P17858_K681): 20.0
isoTOP-ABPP ratio, lysine P17858_K715 ([3]; 100 uM_231_sol_in vitro, possible other lysine P17858_K714): 2.9
isoTOP-ABPP ratio, lysine Q6NUQ1_K771 ([4]; 100 uM_231_sol_in vitro): 1.1
isoTOP-ABPP ratio, lysine P12956_K351 ([5]; 100 uM_231_sol_in vitro): 6.0
Structure (SMILES): CC(C)(C)OC(=O)N=C(NC(=O)OC(C)(C)C)n1cccn1 [fragment 50, reference compound]

Structure (SMILES): O=C(Oc1ccc([N+](=O)[O-])cc1[N+](=O)[O-])c1ccccc1Nc1cccc(C(F)(F)F)c1 [fragment 40, 2,4-Dinitrophenyl 2-((3-(trifluoromethyl)phenyl)amino)benzoate]
isoTOP-ABPP ratio (R) at liganded lysine P13639_K235 (EEF2 Elongation factor 2): 0.9
isoTOP-ABPP ratio (R) at liganded lysine P13639_K318 (EEF2 Elongation factor 2): 0.9
isoTOP-ABPP ratio (R) at liganded lysine P52292_K459 [1]: 1.7
isoTOP-ABPP ratio (R) at liganded lysine P42345_K2066 [2]: 0.8
isoTOP-ABPP ratio (R) at liganded lysine P17858_K677 ([3]; 50 uM, in vitro): 0.9
isoTOP-ABPP ratio (R) at liganded lysine P17858_K715 ([3]; 50 uM, in vitro): 1.1
isoTOP-ABPP ratio (R) at liganded lysine Q6NUQ1_K771 [4]: 1.1
isoTOP-ABPP ratio (R) at liganded lysine P12956_K351 [5]: 1.0
